According to article PMC5363373, “Zirconium tetraazamacrocycle complexes display extraordinary stability and provide a new strategy for zirconium-89-based radiopharmaceutical development” (Chemical Science, 2016):

Experiments:
[1] = In vitro EDTA challenge study; type: physicochemical
Experimental: In vitro EDTA challenge study. In vitro EDTA challenge study was carried out by adding 10 µL of each 89Zr-labeled complex (70 μCi, 2.59 MBq) to 500 µL of EDTA (10 mM, 50 mM and 100 mM: pH 5 and pH 7) with a 1:100, 1:500, and 1:1000 ratio of ligand/EDTA. The solutions (n=4) were incubated at 37 °C for 7 days in a thermomixer. Samples were analyzed at 30 min, 1 h, 3 h, 6 h, 1 d, 3 d, 5 d and 7 d post administration to EDTA by radio-TLC using Varian ITLC-SA strips and 0.1 M EDTA (pH 5) as the mobile phase and gamma counting using an energy window of 500-1500 keV and standard protocols .

[2] = In vitro metal competition study; type: physicochemical; conditions: PBS pH 7.4, 37 C
Experimental: In vitro Metal Competition study. To a solution of metal cations [iron (III) chloride, cobalt (II) chloride, zinc (II) chloride, copper (II) chloride, magnesium (II) chloride, gallium (III) nitrate, gadolinium (III) chloride] (1 mM, 200 µL), was added 89Zr-labeled complex (0.1 mM, 10 µL, 80 μCi, 2.96 MBq) in PBS, pH 7.4. The resulting solutions (n = 3) were incubated at 37 °C for 7 days in a thermomixer. Dissociation of 89Zr from 89Zr-complexes was monitored by radio-TLC at 2 h, 1 d, 4 d and 7 d time point. All studies were performed in triplicate.

[3] = In vitro serum stability (radio-ITLC); type: in vitro ADME; conditions: 37 C, after 7 days
Experimental: In vitro serum stability. In vitro serum stability was carried out by adding 10 µL of each 89Zr-labeled complex (70 μCi, 2.59 MBq) to 500 µL of human serum. The solutions (n=4) were incubated at 37 °C for 7 days and were analyzed daily for 1 week by radio -TLC using Varian ITLC-SA strips and 0.1 M EDTA (pH 5) as the mobile phase and gamma counting using an energy window of 500-1500 keV and standard protocols . Serum samples were also analyzed after 7 days by size exclusion chromatography (SEC) using a Superdex 200 10/300 GLTM column (GE Healthcare Life Sciences, Piscataway, NJ) and phosphate buffered saline (PBS) as eluent with a flow rate of 0.5 mL/min.
Figure S30. Radio-ITLC of 89Zr-DOTA solution in human serum at 37 °C after 0 h (a) and 7 days (b). […]

Biodistribution studies = type: in vivo, female NIH Swiss mice; conditions: mice, over the 72 h experiment
Experimental: Biodistribution Studies. Biodistribution studies were conducted using a modified literature procedure. 7 Briefly, female NIH Swiss mice (6-8 wk old, n=6) were injected with each 89Zr-labeled complex (0.55 MBq (15 μCi)/mouse) via the tail vein, and sacrificed at 2, 4, 24, 48, 72 h post-injection. Organs and tissues of interest were excised, weighted, and counted on a Perkin Elmer 2480 Wizard® gamma counter (Waltham, MA). The percent injected dose per gram (%ID/g) and percent injected dose per organ (%ID/organ) were calculated by comparison to a weighed, counted standard for each group (Tables S9 – S12).
Statistical Methods. All of the data are presented as mean±SD or mean (95% Confidence Interval). For statistical classification a student’s t test (two-tailed, unpaired) was performed using GraphPad Prism (San Diego, CA). Any p<0.05 was considered significant.

**Q.** Which “% Intact of 89Zr-complexes” value ([1]; EDTA 100-fold, pH 5.0, 37 C, 1 h) does the source give for NC(=O)CN1CCN(CC(N)=O)CCN(CC(N)=O)CCN(CC(N)=O)CC1.[89Zr+4] [89Zr-DOTAM] here?
**A.** The value was 97.7 ± 0.2%.

**Q.** What about the “% Intact of 89Zr-complexes” value ([1]; EDTA 100-fold, pH 5.0, 37 C, 1 d) of the same compound?
**A.** The value was 84.4 ± 0.9%.

**Q.** And the “% Intact of 89Zr-complexes” value ([1]; EDTA 100-fold, pH 5.0, 37 C, 3 d)?
**A.** The value was 67.6 ± 0.9%.

**Q.** What about the “% Intact of 89Zr-complexes” value ([1]; EDTA 100-fold, pH 5.0, 37 C, 5 d) of the same compound?
**A.** Its value is 49.6 ± 0.6%.

**Q.** And the “% Intact of 89Zr-complexes” value ([1]; EDTA 100-fold, pH 5.0, 37 C, 7 d)?
**A.** Its value is 42.3 ± 1.2%.

**Q.** And the “% Intact of 89Zr-complexes” value ([1]; EDTA 100-fold, pH 7.0, 37 C, 1 h)?
**A.** The value was 99.0 ± 0.2%.

**Q.** And the “% Intact of 89Zr-complexes” value ([1]; EDTA 100-fold, pH 7.0, 37 C, 1 d)?
**A.** Its value is 90.9 ± 0.8%.

**Q.** And the “% Intact of 89Zr-complexes” value ([1]; EDTA 100-fold, pH 7.0, 37 C, 3 d)?
**A.** Its value is 86.1 ± 1.1%.

**Q.** What about the “% Intact of 89Zr-complexes” value ([1]; EDTA 100-fold, pH 7.0, 37 C, 5 d) of the same compound?
**A.** Its value is 75.7 ± 0.8%.

**Q.** And the “% Intact of 89Zr-complexes” value ([1]; EDTA 100-fold, pH 7.0, 37 C, 7 d)?
**A.** Its value is 72.1 ± 2.0%.

**Q.** What about the “% Intact of 89Zr-complexes” value ([1]; EDTA 500-fold, pH 5.0, 37 C, 1 h) of the same compound?
**A.** Its value is 97.5 ± 0.6%.

**Q.** What about the “% Intact of 89Zr-complexes” value ([1]; EDTA 500-fold, pH 5.0, 37 C, 1 d) of the same compound?
**A.** The value was 80.0 ± 1.2%.

**Q.** And the “% Intact of 89Zr-complexes” value ([1]; EDTA 500-fold, pH 5.0, 37 C, 3 d)?
**A.** Its value is 47.0 ± 0.4%.

**Q.** And the “% Intact of 89Zr-complexes” value ([1]; EDTA 500-fold, pH 5.0, 37 C, 5 d)?
**A.** The value was 22.8 ± 1.8%.

**Q.** And the “% Intact of 89Zr-complexes” value ([1]; EDTA 500-fold, pH 5.0, 37 C, 7 d)?
**A.** The value was 12.2 ± 1.5%.

**Q.** And the “% Intact of 89Zr-complexes” value ([1]; EDTA 500-fold, pH 7.0, 37 C, 1 h)?
**A.** The value was 98.5 ± 0.2%.

**Q.** What about the “% Intact of 89Zr-complexes” value ([1]; EDTA 500-fold, pH 7.0, 37 C, 1 d) of the same compound?
**A.** The value was 90.8 ± 0.9%.

**Q.** And the “% Intact of 89Zr-complexes” value ([1]; EDTA 500-fold, pH 7.0, 37 C, 3 d)?
**A.** The value was 77.5 ± 1.4%.

**Q.** And the “% Intact of 89Zr-complexes” value ([1]; EDTA 500-fold, pH 7.0, 37 C, 5 d)?
**A.** Its value is 66.6 ± 0.5%.

**Q.** What about the “% Intact of 89Zr-complexes” value ([1]; EDTA 500-fold, pH 7.0, 37 C, 7 d) of the same compound?
**A.** The value was 58.1 ± 1.4%.

**Q.** What about the “% Intact of 89Zr-complexes” value ([1]; EDTA 1000-fold, pH 5.0, 37 C, 1 h) of the same compound?
**A.** Its value is 96.5 ± 0.2%.

**Q.** And the “% Intact of 89Zr-complexes” value ([1]; EDTA 1000-fold, pH 5.0, 37 C, 1 d)?
**A.** The value was 77.0 ± 1.3%.

**Q.** What about the “% Intact of 89Zr-complexes” value ([1]; EDTA 1000-fold, pH 5.0, 37 C, 3 d) of the same compound?
**A.** The value was 38.3 ± 1.5%.

**Q.** What about the “% Intact of 89Zr-complexes” value ([1]; EDTA 1000-fold, pH 5.0, 37 C, 5 d) of the same compound?
**A.** The value was 13.4 ± 1.6%.

**Q.** What about the “% Intact of 89Zr-complexes” value ([1]; EDTA 1000-fold, pH 5.0, 37 C, 7 d) of the same compound?
**A.** Its value is 5.7 ± 1.0%.

**Q.** And the “% Intact of 89Zr-complexes” value ([1]; EDTA 1000-fold, pH 7.0, 37 C, 1 h)?
**A.** The value was 98.3 ± 0.1%.

**Q.** And the “% Intact of 89Zr-complexes” value ([1]; EDTA 1000-fold, pH 7.0, 37 C, 1 d)?
**A.** Its value is 88.6 ± 0.4%.

**Q.** What about the “% Intact of 89Zr-complexes” value ([1]; EDTA 1000-fold, pH 7.0, 37 C, 3 d) of the same compound?
**A.** The value was 69.9 ± 1.8%.

**Q.** And the “% Intact of 89Zr-complexes” value ([1]; EDTA 1000-fold, pH 7.0, 37 C, 5 d)?
**A.** Its value is 58.2 ± 1.3%.

**Q.** And the “% Intact of 89Zr-complexes” value ([1]; EDTA 1000-fold, pH 7.0, 37 C, 7 d)?
**A.** The value was 47.4 ± 0.9%.

**Q.** And the “% Intact of 89Zr-complexes” value ([2]; Co2+, 2 h)?
**A.** Its value is 92.6 ± 0.5%.

**Q.** And the “% Intact of 89Zr-complexes” value ([2]; Co2+, 1 d)?
**A.** The value was 88.6 ± 0.3%.

**Q.** And the “% Intact of 89Zr-complexes” value ([2]; Co2+, 4 d)?
**A.** Its value is 85.8 ± 0.4%.

**Q.** What about the “% Intact of 89Zr-complexes” value ([2]; Co2+, 7 d) of the same compound?
**A.** Its value is 80.9 ± 1.0%.

**Q.** What about the “% Intact of 89Zr-complexes” value ([2]; Cu2+, 2 h) of the same compound?
**A.** Its value is 91.9 ± 0.1%.

**Q.** What about the “% Intact of 89Zr-complexes” value ([2]; Cu2+, 1 d) of the same compound?
**A.** Its value is 86.7 ± 0.7%.

**Q.** And the “% Intact of 89Zr-complexes” value ([2]; Cu2+, 4 d)?
**A.** Its value is 80.5 ± 0.8%.

**Q.** What about the “% Intact of 89Zr-complexes” value ([2]; Cu2+, 7 d) of the same compound?
**A.** The value was 74.1 ± 1.2%.

**Q.** What about the “% Intact of 89Zr-complexes” value ([2]; Fe3+, 2 h) of the same compound?
**A.** The value was 92.4 ± 0.5%.

**Q.** What about the “% Intact of 89Zr-complexes” value ([2]; Fe3+, 1 d) of the same compound?
**A.** The value was 89.8 ± 0.2%.

**Q.** And the “% Intact of 89Zr-complexes” value ([2]; Fe3+, 4 d)?
**A.** The value was 87.2 ± 0.8%.

**Q.** And the “% Intact of 89Zr-complexes” value ([2]; Fe3+, 7 d)?
**A.** Its value is 85.8 ± 0.8%.

**Q.** What about the “% Intact of 89Zr-complexes” value ([2]; Ga3+, 2 h) of the same compound?
**A.** The value was 92.9 ± 0.7%.

**Q.** What about the “% Intact of 89Zr-complexes” value ([2]; Ga3+, 1 d) of the same compound?
**A.** The value was 87.9 ± 0.7%.

**Q.** And the “% Intact of 89Zr-complexes” value ([2]; Ga3+, 4 d)?
**A.** The value was 86.6 ± 2.3%.

**Q.** And the “% Intact of 89Zr-complexes” value ([2]; Ga3+, 7 d)?
**A.** The value was 80.3 ± 0.4%.

**Q.** And the “% Intact of 89Zr-complexes” value ([2]; Gd3+, 2 h)?
**A.** The value was 93.9 ± 0.3%.

**Q.** And the “% Intact of 89Zr-complexes” value ([2]; Gd3+, 1 d)?
**A.** The value was 90.6 ± 0.3%.

**Q.** And the “% Intact of 89Zr-complexes” value ([2]; Gd3+, 4 d)?
**A.** The value was 88.8 ± 0.6%.

**Q.** What about the “% Intact of 89Zr-complexes” value ([2]; Gd3+, 7 d) of the same compound?
**A.** The value was 86.3 ± 0.1%.

**Q.** And the “% Intact of 89Zr-complexes” value ([2]; Mg2+, 2 h)?
**A.** The value was 93.6 ± 1.0%.

**Q.** And the “% Intact of 89Zr-complexes” value ([2]; Mg2+, 1 d)?
**A.** Its value is 90.5 ± 0.5%.

**Q.** And the “% Intact of 89Zr-complexes” value ([2]; Mg2+, 4 d)?
**A.** Its value is 87.4 ± 0.9%.

**Q.** And the “% Intact of 89Zr-complexes” value ([2]; Mg2+, 7 d)?
**A.** Its value is 93.1 ± 0.8%.

**Q.** What about the “% Intact of 89Zr-complexes” value ([2]; Zn2+, 2 h) of the same compound?
**A.** The value was 94.1 ± 0.5%.

**Q.** And the “% Intact of 89Zr-complexes” value ([2]; Zn2+, 1 d)?
**A.** The value was 89.4 ± 1.9%.

**Q.** What about the “% Intact of 89Zr-complexes” value ([2]; Zn2+, 4 d) of the same compound?
**A.** The value was 71.9 ± 1.7%.

**Q.** And the “% Intact of 89Zr-complexes” value ([2]; Zn2+, 7 d)?
**A.** The value was 57.0 ± 1.8%.

**Q.** And the “Radio-ITLC peak of complex in human serum” value [3]?
**A.** The value was 99.2%.

**Q.** What about the “Radioactivity retention in liver and spleen tissues” value (Biodistribution studies) of the same compound?
**A.** The value was “retained elevated levels of radioactivity”.
